Assay results from PubChem BioAssay AID248 (DTP/NCI, 2004).
Values joined by “and” are separate entries in the source; they are usually repeats but may differ in a detail not shown here. Identical values can stand only once. Inconclusive results and toxic doses are left out. Rule as the data show it: active = T/C of 150% or more; inactive = T/C below 125%.

Tested on: L1210 leukemia ip in BDF1 mice, survival T/C
Experiment: NCI In Vivo Anticancer Drug Screen. Data for tumor model L1210 Leukemia (intraperitoneal) in B6D2F1 (BDF1) mice
Details: endpoint: mean survival time, higher = longer survival
Method in brief: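 Read-out is survival time, reported as the treated-group measurement over the vehicle-control measurement.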

[1] = dose: 50.0 mg/kg/injection, schedule: Q01DX001 (ip), vehicle: carboxymethylcellulose (CMC)
[2] = dose: 100.0 mg/kg/injection, schedule: Q01DX001 (ip), vehicle: carboxymethylcellulose (CMC)
[3] = dose: 200.0 mg/kg/injection, schedule: Q01DX001 (ip), vehicle: carboxymethylcellulose (CMC)
[4] = dose: 400.0 mg/kg/injection, schedule: Q01DX001 (ip), vehicle: carboxymethylcellulose (CMC)
[5] = dose: 100.0 mg/kg/injection, schedule: Q01DX001 (ip), vehicle: saline
[6] = dose: 200.0 mg/kg/injection, schedule: Q01DX001 (ip), vehicle: saline
[7] = dose: 400.0 mg/kg/injection, schedule: Q01DX001 (ip), vehicle: saline
[8] = dose: 100.0 mg/kg/injection, schedule: Q04DX003 (ip), vehicle: saline with Tween-80
[9] = dose: 100.0 mg/kg/injection, schedule: Q01DX009 (ip), vehicle: Klucel (hydroxypropylcellulose) (HPC)
[10] = dose: 100.0 mg/kg/injection, schedule: Q04DX003 (ip), vehicle: Klucel (hydroxypropylcellulose) (HPC)
[11] = dose: 200.0 mg/kg/injection, schedule: Q01DX009 (ip), vehicle: Klucel (hydroxypropylcellulose) (HPC)
[12] = dose: 200.0 mg/kg/injection, schedule: Q04DX003 (ip), vehicle: Klucel (hydroxypropylcellulose) (HPC)
[13] = dose: 400.0 mg/kg/injection, schedule: Q04DX003 (ip), vehicle: Klucel (hydroxypropylcellulose) (HPC)
[14] = dose: 100.0 mg/kg/injection, schedule: Q04DX002 (ip), vehicle: saline with Tween-80
[15] = dose: 100.0 mg/kg/injection, schedule: Q01DX001 (ip), vehicle: Klucel (hydroxypropylcellulose) (HPC)
[16] = dose: 200.0 mg/kg/injection, schedule: Q01DX001 (ip), vehicle: Klucel (hydroxypropylcellulose) (HPC)
[17] = dose: 400.0 mg/kg/injection, schedule: Q01DX001 (ip), vehicle: Klucel (hydroxypropylcellulose) (HPC)

Measured: T/C

Cc1c(C(=O)c2ccccc2)c2ccccc2n1C
inactive: [1] 96 % of control | [2] 91 % of control | [3] 93 % of control | [4] 93 % of control

CC(=O)OC12CCC34CCC5(CCC(OC(C)=O)(O1)C5C32)O4 (stereo not drawn)
inactive: dose: 100.0 mg/kg/injection, schedule: Q01DX001 (ip), vehicle: saline with Tween-80 105 % of control | dose: 200.0 mg/kg/injection, schedule: Q01DX001 (ip), vehicle: saline with Tween-80 98 % of control | dose: 400.0 mg/kg/injection, schedule: Q01DX001 (ip), vehicle: saline with Tween-80 98 % of control

Cc1cc(/C=N/N=c2\[nH][nH]/c(=N\N=C\c3cc(C)n(-c4ccccc4)c3C)c3ccccc23)c(C)n1-c1ccccc1
inactive: dose: 50.0 mg/kg/injection, schedule: Q01DX001 (ip), vehicle: saline 97 % of control | [5] 97 % of control | [6] 92 % of control | [7] 103 % of control

Cc1cc([N+](=O)[O-])ccc1S(=O)(=O)F
inactive: [8] 100 % of control

CC1(CCBr)NC(=O)NC1=O (stereo not drawn)
inactive: [9] 121 % of control | [10] 98 % of control | [11] 101 % of control | [12] 119 % of control | dose: 400.0 mg/kg/injection, schedule: Q01DX009 (ip), vehicle: Klucel (hydroxypropylcellulose) (HPC) 95 % of control | [13] 107 % of control

COc1ccc(-c2c([N+](=O)[O-])ccc(Cl)c2[N+](=O)[O-])cc1
inactive: [1] 94 % of control | [2] 117 % of control | [3] 107 % of control | [4] 102 % of control

COc1ccc(CNC(=O)NCCCl)cc1OC
inactive: [9] 102 % of control | [10] 115 % of control | [11] 103 % of control | [12] 113 % of control | [13] 101 % of control

C=Cn1cc[n+](Cc2ccccc2)c1C
inactive: dose: 10.0 mg/kg/injection, schedule: Q01DX009 (ip), vehicle: saline 101 % of control and 104 % of control | dose: 10.0 mg/kg/injection, schedule: Q04DX002 (ip), vehicle: saline 108 % of control and 90 % of control | dose: 20.0 mg/kg/injection, schedule: Q01DX009 (ip), vehicle: saline 105 % of control | dose: 20.0 mg/kg/injection, schedule: Q04DX002 (ip), vehicle: saline 94 % of control and 97 % of control | dose: 40.0 mg/kg/injection, schedule: Q01DX009 (ip), vehicle: saline 100 % of control and 116 % of control | dose: 40.0 mg/kg/injection, schedule: Q04DX002 (ip), vehicle: saline 97 % of control and 102 % of control

Cc1cc(C(=O)NNC(C)Cc2ccccc2)no1 (stereo not drawn)
inactive: dose: 4.6 mg/kg/injection, schedule: Q01DX009 (ip), vehicle: Klucel (hydroxypropylcellulose) (HPC) 94 % of control | dose: 9.3 mg/kg/injection, schedule: Q01DX009 (ip), vehicle: Klucel (hydroxypropylcellulose) (HPC) 94 % of control | dose: 18.75 mg/kg/injection, schedule: Q01DX009 (ip), vehicle: Klucel (hydroxypropylcellulose) (HPC) 97 % of control | dose: 37.5 mg/kg/injection, schedule: Q01DX009 (ip), vehicle: Klucel (hydroxypropylcellulose) (HPC) 97 % of control

Cc1ccc(S(=O)(=O)NC(=O)NCc2ccco2)cc1
inactive: [10] 94 % of control | [12] 86 % of control | [13] 89 % of control

O=S(=O)(O)c1cccc2c(S(=O)(=O)O)cccc12
inactive: [10] 107 % of control | [12] 100 % of control | [13] 97 % of control

CC(=O)NC1CCCC(CC2CCCCC2)C1 (stereo not drawn)
inactive: [10] 103 % of control | [12] 93 % of control | [13] 98 % of control

NC(=O)c1nccc2ccccc12
inactive: [5] 110 % of control | [6] 107 % of control | [7] 98 % of control

CC(C)N(CCNCC(Cc1ccccc1)c1ccccc1)C(C)C (stereo not drawn)
inactive: dose: 25.0 mg/kg/injection, schedule: Q04DX002 (ip), vehicle: saline with Tween-80 99 % of control | dose: 50.0 mg/kg/injection, schedule: Q04DX002 (ip), vehicle: saline with Tween-80 96 % of control | [14] 102 % of control

Cc1ccc2nsnc2c1[N+](=O)[O-]
inactive: dose: 100.0 mg/kg/injection, schedule: Q04DX002 (ip), vehicle: Klucel (hydroxypropylcellulose) (HPC) 107 % of control | dose: 200.0 mg/kg/injection, schedule: Q04DX002 (ip), vehicle: Klucel (hydroxypropylcellulose) (HPC) 118 % of control | dose: 400.0 mg/kg/injection, schedule: Q04DX002 (ip), vehicle: Klucel (hydroxypropylcellulose) (HPC) 102 % of control

CC(C)(C(=O)O)c1ccc(-c2ccccc2)cc1
inactive: [8] 102 % of control | dose: 200.0 mg/kg/injection, schedule: Q04DX003 (ip), vehicle: saline with Tween-80 97 % of control | dose: 400.0 mg/kg/injection, schedule: Q04DX003 (ip), vehicle: saline with Tween-80 106 % of control

O=C(O)CCc1nc2ccccc2c(=O)[nH]1
inactive: dose: 50.0 mg/kg/injection, schedule: Q01DX009 (ip), vehicle: Klucel (hydroxypropylcellulose) (HPC) 100 % of control | [9] 100 % of control | [11] 100 % of control

CCC(C)C(C=NCC(CCN(CC)CC)(c1cccc2ccccc12)C(C)CC)(CCN(CC)CC)c1cccc2ccccc12 (stereo not drawn)
inactive: [14] 94 % of control | dose: 200.0 mg/kg/injection, schedule: Q04DX002 (ip), vehicle: saline with Tween-80 97 % of control | dose: 400.0 mg/kg/injection, schedule: Q04DX002 (ip), vehicle: saline with Tween-80 87 % of control

CN(C)C1CS(=O)(=O)CC1[N+](C)(C)C (stereo not drawn)
inactive: dose: 100.0 mg/kg/injection, schedule: Q04DX002 (ip), vehicle: saline 118 % of control | dose: 200.0 mg/kg/injection, schedule: Q04DX002 (ip), vehicle: saline 89 % of control | dose: 400.0 mg/kg/injection, schedule: Q04DX002 (ip), vehicle: saline 110 % of control

O=C(COc1ccc(Cl)c(Cl)c1)Nc1ccc[n+](CC(=O)Nc2ccc(S(=O)(=O)F)cc2)c1
inactive: dose: 100.0 mg/kg/injection, schedule: Q01DX009 (ip), vehicle: saline with Tween-80 87 % of control | dose: 200.0 mg/kg/injection, schedule: Q01DX009 (ip), vehicle: saline with Tween-80 87 % of control | dose: 400.0 mg/kg/injection, schedule: Q01DX009 (ip), vehicle: saline with Tween-80 89 % of control

COc1cccc(/C=N\NC(=O)CCCC(=O)N/N=C/c2cccc(OC)c2OC)c1OC
inactive: dose: 50.0 mg/kg/injection, schedule: Q01DX001 (ip), vehicle: other 91 % of control | dose: 100.0 mg/kg/injection, schedule: Q01DX001 (ip), vehicle: other 91 % of control | dose: 200.0 mg/kg/injection, schedule: Q01DX001 (ip), vehicle: other 91 % of control | dose: 400.0 mg/kg/injection, schedule: Q01DX001 (ip), vehicle: other 91 % of control

CCOC(=O)/C(C#N)=C/C(C)c1ccccc1 (stereo not drawn)
inactive: dose: 100.0 mg/kg/injection, schedule: Q01DX009 (ip), vehicle: saline 108 % of control | dose: 200.0 mg/kg/injection, schedule: Q01DX009 (ip), vehicle: saline 104 % of control | dose: 400.0 mg/kg/injection, schedule: Q01DX009 (ip), vehicle: saline 95 % of control

COc1ccc(N2C(=O)OC3(CCN(CCCC(=O)c4cccs4)CC3)C2=O)cc1
inactive: [15] 88 % of control | [16] 92 % of control | [17] 100 % of control

CC(=O)OC(C)C(=O)Nc1ccccc1 (stereo not drawn)
inactive: [15] 93 % of control | [16] 89 % of control | [17] 96 % of control
